Assay results from patent EP0050212A1, “5-Substituted-9-cyane-methylene-dithieno(3,4-b:4',3'-e) azepines, process for their preparation and pharmaceutical compositions containing them” (BASF Aktiengesellschaft, priority 1980, dated 1982).

Legend:
[1] = system: NMRI-Mäusen; assay: Sedative effect: inhibition of novelty-induced orientation hypermotility (photoelectric measurement); format: in vivo; conditions: for ED50: Mus musculus, 0.5 h, oral, female NMRI mice, measured 30 min after dosing for 30 min, dose giving 50 % decrease of orientation hypermotility, read-out: Sedation ED50; for Sedation R.W.: relative Wirksamkeit = ED50 Vergleichssubstanz / ED50 Beispiel, Clozapin = 1,0
Description: 4 bis 8 Gruppen von Jeweils 3 weiblichen NMRI-Mäusen erhalten die Substanzen oral appliziert. Die photoelektrische Bestimmung der durch eine neue Umgebung induzierten Orientierungshypermotilität erfolgt 30 min nach der Applikation der Substanzen für eine Dauer von 30 min. " Als ED50 wird die Dosis bestimmt, welche im Ver- gleich zu Placebo-behandelten Kontrolltieren eine Abnahme der Orientierungshypermotilität um 50 % bewirkt.

[2] = system: Kaninchens; assay: Muscle-relaxant effect: tonic stretch reflex of the gastrocnemius; format: in vivo, Kaninchen; conditions: for ED50: Oryctolagus cuniculus, rabbit, intravenous, tonic stretch reflex impulse counts relative to pre-dose values, read-out: Muskelrelaxation ED50; for Muskelrelaxation R.W.: relative Wirksamkeit = ED50 Vergleichssubstanz / ED50 Beispiel, Clozapin = 1,0
Description: 2. […] auf der Quantifizierung des tonischen Dehnungsreflexes am Gastocnemius des […] et al., Arch. Pharmacol. exp. Path. 266, 462, 1970). Das Kaninchen wird in einer speziellen Apparatur fixiert, die es erlaubt, die Pfote im Sprunggelenk in […] und reproduzierbarer Weise zu beugen. Durch die Beugung wird in der Wadenmuskulatur ein tonischer Dehnungsreflex ausgelöst. Die […] des Muskels während der Kontraktion wird registriert und die Einzelimpulse gezählt. Die Dehnung (Dauer 5 s) wird in Minutenabständen wiederholt. Nach Erreichen einer konstanten Impulszahl (Kontrollwert) wird die Testsubstanz intravenös appliziert. Die Impulszahlen nach Applikation werden auf die Vorwerte bezogen.

[3] = system: Ratten; assay: Antimethamphetamine effect: suppression of methamphetamine-induced sniffing; format: in vivo; conditions: for ED50: ip, 0.5 h, rat, intraperitoneal 30 min before Methamphetamin . HCl 2,5 mg/kg i.v., absence of sniffing within 5 min, probit analysis, read-out: Methamphetaminantagonismus ED50; for Methamphetaminantagonismus R.W.: relative Wirksamkeit = ED50 Vergleichssubstanz / ED50 Beispiel, Clozapin = 1,0
Description: Antimethamphetamin-Wirkung
Methamphetamin . […] Die Prüfsubstanzen werden 30 min vor Methamphetamin intraperitoneal verabfolgt. Kriterium für einen Substanzeffekt ist das Ausbleiben der Schnüffelbewegungen innerhalb eines 5-minütigen Beobachtungszeitraumes nach Meth- amphetamin-Injektion. Als mittlere Hemmdosis (ED50) ' wird mittels Probitanalyse die Dosis ermittelt, die das Symptom bei der Hälfte der Tiere verhindert.

[4] = system: Ratten; assay: Central anticholinergic effect: suppression of pilocarpine-induced scratching; format: in vivo; conditions: for ED50: ip, 0.5 h, rat, intraperitoneal 30 min before Pilocarpin . HCl 50 mg/kg i.v., absence of scratching within 2 min, probit analysis, read-out: Zentral-anticholinerge Wirkung ED50; for Zentral-anticholinerge Wirkung R.W.: relative Wirksamkeit = ED50 Vergleichssubstanz / ED50 Beispiel, Clozapin = 1,0
Description: 4. Zentral-anticholinerge Wirkung
Zur Prüfung auf zentrale anticholinerge Wirkung wird durch Pilocarpin eine cholinerge Stimulierung ausgelöst. Ratten zeigen nach rascher intravenöser Injektion von Pilocarpin . HC1 (50 mg/kg) alternierende Kratzbewegungen der Hinterpfoten; weitere zentral ausgelöste Symptome sind Kieferbewegungen und Tremor. ALs Zeichen peripherer übererregung können Speichelfluß und Chromodakryorrhoe beobachtet werden (Kreiskott, Arch. exp. Path. Pharmak. 247, 317, 1964). Die Prüfsubstanzen werden 30 min vor Pilocarpin intraperitoneal verabfolgt. Kriterium für einen Substanzeffekt ist das Ausbleiben des Kratzens innerhalb 2 min nach Pilocarpin-Injektion. Für dieses Symptom wird als mittlere Hemmdosis (ED50) mittels Probitanalyse nach Finney diejenige Dosis der Prüfsubstanz ermittelt, welche die Kratzabläufe bei der Hälfte der Tiere unterdrückt.

SMILES | ED50 [1] | Sedation R.W. [1] | ED50 [2] | Muskelrelaxation R.W. [2] | ED50 [3] | Methamphetaminantagonismus R.W. [3] | ED50 [4] | Zentral-anticholinerge Wirkung R.W. [4]
CN1CCN(C2=Nc3c(csc3Cl)C(=CC#N)c3cscc32)CC1 (mixture of isomers) [Beispiel 2, cis, trans-3-Chlor-9-cyanmethyl en-5-(4-methylpiperazin-1--yl)-dithieno[3.4-b:4'.3'-e]azepin] | 9.6 mg/kg | 0,49 | 0.08 mg/kg | 0,56 | – | – | – | –
CCN1CCN(C2=Nc3cscc3C(=CC#N)c3cscc32)CC1 (mixture of isomers) [Beispiel 6, cis, trans-9-Cyanmethylen-5-(4-äthyl-piperazin-1-yl)-di-thieno[3.4-b:4'.3'-elazepin] | 10.6 mg/kg | 0,44 | 0.22 mg/kg | 0,21 | 42 mg/kg | 0,88 | – | –
CN1CCN(C2=Nc3cscc3/C(=C/C#N)c3cscc32)CC1 [1b cis] | 5 mg/kg | 0,94 | 0.22 mg/kg | 0,21 | 5.5 mg/kg | 6,72 | 0.6 mg/kg | 5,2
CN1CCN(C2=Nc3cscc3/C(=C\C#N)c3cscc32)CC1 [1b trans] | > 21.5 mg/kg | <0,22 | > 1 mg/kg | <0,046 | 77 mg/kg | 0,48 | 13 mg/kg | 0,24
CN1CCN(C2=Nc3cscc3C(=CC#N)c3cscc32)CC1 [Beispiel 1a, 9-Cyanmethylen-5-(4-methyl-piperazin-1-yl)-dithieno-[3.4-b:4'.3'-e]azepin] | 7.4 mg/kg | 0,64 | 0.14 mg/kg | 0,33 | 5.1 mg/kg | 7,25 | 2.8 mg/kg | 1,1
CN1CCN(C2=Nc3cc(Cl)ccc3Nc3ccccc32)CC1 [Clozapin, reference compound] | 4.7 mg/kg | 1,0 | – | 1,0 | 37 mg/kg | 1,0 | 3.1 mg/kg | 1,0
CN1CCN(C2=Nc3ccccc3Cc3ccccc32)CC1 [Perlapin, reference compound] | 2.1 mg/kg | 2,24 | 0.11 mg/kg | 0,42 | 31 mg/kg | 1,2 | 14 mg/kg | 0,22
